# Measured values taken from publication PMC3750913 (BMC Microbiology, 2013).
# Key:
# [1] = test system: DENV-2; assay: Viral attachment assay, method 2 (virus-specific cellular ELISA); assay type: cell-based, dengue virus type 2; conditions: DENV-2 MOI 5, ELISA, 4°C; highest inhibitory concentration of the compounds
# [2] = test system: ADV-5; set-up: method as in PMID 16894186, PMID 10704346; conditions: HS-mediated entry; ref [51], [52]; cited from earlier work
# [3] = test system: HCMV; assay: Analysis of drug effects post viral entry; assay type: cell-based, human cytomegalovirus; conditions: HCMV, HEL cells; CHLA 60 μM, PUG 40 μM, Heparin 30 μg/ml
# [4] = test system: HCV; assay: Viral cell-to-cell spread assay; assay type: cell-based, hepatitis C virus; conditions: HCV
# Experimental: (A) Schematic of the experiment (left) with the virus concentration (PFU/well) and step-wise incubation periods (i, ii, iii) indicated for each virus in the table on the right. Virus infections were established (i) in the different cell types by direct inoculation (HCMV, DENV-2, MV, and RSV) or electroporation of viral RNA (HCV; *), and the cell monolayers were washed with citrate buffer or PBS before being covered with an overlay medium that prevents secondary infection. Initial virus plaques were allowed to form in the subsequent infections (ii), and then the test compounds were added to the overlay medium for an additional time of incubation (iii) before analysis of viral plaque size by immune fluorescence microscopy. Five random virus-positive plaques at the endpoint of the experiment were evaluated for each treatment group of viruses, and the data was plotted as “fold change of plaque area” against the size of the initial viral plaques formed prior to test compound treatment. Analyses for (B) HCMV, (C) HCV, (D) DENV-2, (E) MV, and (F) RSV are indicated in each additional panel. The S29 cell line and the FIP inhibitor were included as controls for HCV and MV, respectively. Results shown are means ± SEM from three independent experiments and representative micrographs of the evaluated plaques are provided in Additional file 1 Figure S1, Additional file 2 Figure S2, Additional file 3 Figure S3, Additional file 4 Figure S4 and Additional file 5 Figure S5. See text for details.
# The examination of HCV spread is based on previously described protocol with some modifications. Huh-7.5 cells were electroporated with HCV Jc1FLAG2(p7-nsGluc2A) RNA (10 μg) as described above to establish random productive infections in the cell population, and then mixed with naïve cells at a ratio of 1:1 before seeding in 12-well plates. […] Medium was changed 24 h post-electroporation with an overlay medium containing the test drugs or control and 0.5% methylcellulose, and the plates were further incubated for 5 days before analysis of HCV-positive foci through immunostaining.
# For immunofluorescence analysis of viral plaque size due to spread, the overlay media were removed and the wells were fixed with ice-cold methanol before blocking with 3% BSA. Samples were then treated at 37°C for 1 h with the respective mouse monoclonal primary antibodies diluted in PBS containing 3% BSA: anti-HCMV gB antibody (1:1,000), anti-NS5A 9E10 antibody for HCV (1:25,000), anti-flavivirus group antibody (1:400) for DENV-2, and anti-RSV fusion protein antibody (1:1,000). After incubation, the wells were washed with PBS three times before applying Alexa Fluor 488 goat anti-mouse IgG (H + L) antibody (Invitrogen), diluted at 1:1,000 (HCMV and RSV) or 1:400 (DENV-2 and HCV) in PBS containing 3% BSA. Following incubation at 37°C for 1 h, the samples were washed with PBS three times prior to visualization by fluorescence microscopy. The fluorescence expression of MV-EGFP could be readily detected without addition of antibodies. Photomicrographs were taken at × 100 magnification (Leica Microsystems; Wetzlar, Germany) and viral plaque sizes were then analyzed with MetaMorph software (Molecular Devices; Sunnyvale, CA, USA). In the case of HCV, cellular nuclei were stained with Hoechst dye (Sigma) prior to visualization and the number of cells in the virus-positive foci was determined. For all virus tested, a total of five random virus-positive plaques were evaluated for each treatment group per independent experiment. Comparison was made between viral plaques stained prior to drug addition and those at the endpoint of the experiment, and the data were plotted as “fold change of plaque area”.
# [5] = test system: HCMV; assay: Viral cell-to-cell spread assay; assay type: cell-based, human cytomegalovirus; conditions: HCMV
# [6] = test system: HCV; assay: Analysis of drug effects post viral entry; assay type: cell-based, hepatitis C virus; conditions: HCV, Huh-7.5 cells; CHLA 50 μM, PUG 50 μM, Heparin 1000 μg/ml
# [7] = test system: RSV; assay: Viral cell-to-cell spread assay; assay type: cell-based, respiratory syncytial virus; conditions: RSV
# [8] = test system: RSV; assay: Viral attachment assay, method 1 (host cell infection); assay type: cell-based, respiratory syncytial virus; conditions: RSV, HEp-2 cells, 4°C; CHLA 1 μM, PUG 2 μM, Heparin 1 μg/ml
# [9] = test system: HCMV; assay: Viral inactivation assay; assay type: cell-based, human cytomegalovirus; conditions: HCMV, HEL cells; CHLA 60 μM, PUG 40 μM, Heparin 30 μg/ml
# [10] = test system: DENV-2; assay: Viral attachment assay, method 1 (host cell infection); assay type: cell-based, dengue virus type 2; conditions: DENV-2, Vero cells, 4°C; CHLA 25 μM, PUG 25 μM, Heparin 200 μg/ml
# [11] = test system: HCV; assay: Viral penetration assay; assay type: cell-based, hepatitis C virus; conditions: HCV
# [12] = test system: HCMV; assay: Viral attachment assay, method 1 (host cell infection); assay type: cell-based, human cytomegalovirus; conditions: HCMV, HEL cells, 4°C; CHLA 60 μM, PUG 40 μM, Heparin 30 μg/ml
# [13] = test system: MV; assay: as above; assay type: cell-based, measles virus; conditions: MV, CHO-SLAM cells, 4°C; CHLA 90 μM, PUG 50 μM, Heparin 10 μg/ml
# [14] = test system: RSV; assay: Analysis of drug effects post viral entry; assay type: cell-based, respiratory syncytial virus; conditions: RSV, HEp-2 cells; CHLA 1 μM, PUG 2 μM, Heparin 1 μg/ml
# [15] = test system: HCV; assay: Viral attachment assay, method 2 (virus-specific cellular ELISA); assay type: cell-based, hepatitis C virus; conditions: HCV MOI 0.1, ELISA, 4°C; highest inhibitory concentration of the compounds
# [16] = test system: MV; assay: Viral cell-to-cell spread assay; assay type: cell-based, measles virus; conditions: MV
# [17] = test system: HCV; assay: Viral attachment assay, method 1 (host cell infection); assay type: cell-based, hepatitis C virus; conditions: HCV, Huh-7.5 cells, 4°C; CHLA 50 μM, PUG 50 μM, Heparin 1000 μg/ml
# [18] = test system: RSV; assay: Viral attachment assay, method 2 (virus-specific cellular ELISA); assay type: cell-based, respiratory syncytial virus; conditions: RSV MOI 5, ELISA, 4°C; highest inhibitory concentration of the compounds
# [19] = test system: DENV-2; assay: Viral inactivation assay; assay type: cell-based, dengue virus type 2; conditions: DENV-2, Vero cells; CHLA 25 μM, PUG 25 μM, Heparin 200 μg/ml
# [20] = test system: MV; assay: Analysis of drug effects post viral entry; assay type: cell-based, measles virus; conditions: MV, CHO-SLAM cells; CHLA 90 μM, PUG 50 μM, Heparin 10 μg/ml
# [21] = test system: MV; assay: Viral penetration assay; assay type: cell-based, measles virus; conditions: MV
# [22] = test system: HCMV; assay: Viral attachment assay, method 2 (virus-specific cellular ELISA); assay type: cell-based, human cytomegalovirus; conditions: HCMV MOI 5, ELISA, 4°C; highest inhibitory concentration of the compounds
# [23] = test system: DENV-2; assay: Analysis of drug effects post viral entry; assay type: cell-based, dengue virus type 2; conditions: DENV-2, Vero cells; CHLA 25 μM, PUG 25 μM, Heparin 200 μg/ml
# [24] = test system: DENV-2; assay: Viral cell-to-cell spread assay; assay type: cell-based, dengue virus type 2
# [25] = test system: DENV-2; assay: Viral penetration assay; assay type: cell-based, dengue virus type 2; conditions: DENV-2, Vero cells; CHLA 25 μM, PUG 25 μM, Heparin 200 μg/ml
# [26] = test system: HCMV; assay: Viral penetration assay; assay type: cell-based, human cytomegalovirus; conditions: HCMV
# [27] = test system: RSV; assay: Viral inactivation assay; assay type: cell-based, respiratory syncytial virus; conditions: RSV, HEp-2 cells; CHLA 1 μM, PUG 2 μM, Heparin 1 μg/ml
# [28] = Huh-7.5 cells, CHLA 50 μM, PUG 50 μM, Heparin 1000 μg/ml
# [29] = HEL cells, CHLA 60 μM, PUG 40 μM, Heparin 30 μg/ml
# [30] = CHO-SLAM cells, CHLA 90 μM, PUG 50 μM, Heparin 10 μg/ml
substance,measurement,setting,value
Heparin [reference compound],"Window of antiviral effects: Attachment Method 2, inhibitory effect relative to DMSO control",[1],+++ (+++ > 75%)
same,maximum inhibition of ADV-5 by soluble heparin,[2],≤ 50%
same,"Window of antiviral effects: Post-infection, inhibitory effect relative to DMSO control",[3],- (- < 25%)
same,"Window of antiviral effects: Cell-to-cell spread, inhibitory effect relative to DMSO control",[4]; [28],- (- < 25%)
same,effect on viral plaque size (cell-to-cell spread),[4]; Figure 7,limited effect
same,"Window of antiviral effects: Cell-to-cell spread, inhibitory effect relative to DMSO control",[5]; [29],- (- < 25%)
same,effect on viral plaque size (cell-to-cell spread),[5]; Figure 7,limited effect
same,"Window of antiviral effects: Post-infection, inhibitory effect relative to DMSO control",[6],+ (+ 25–50%)
same,"Window of antiviral effects: Cell-to-cell spread, inhibitory effect relative to DMSO control","[7]; HEp-2 cells, CHLA 1 μM, PUG 2 μM, Heparin 1 μg/ml",- (- < 25%)
same,effect on viral plaque size (cell-to-cell spread),[7]; Figure 7,limited effect
same,"Window of antiviral effects: Attachment Method 1, inhibitory effect relative to DMSO control",[8],+++ (+++ > 75%)
same,"Window of antiviral effects: Free particle, inhibitory effect relative to DMSO control",[9],+ (+ 25–50%)
same,"Window of antiviral effects: Attachment Method 1, inhibitory effect relative to DMSO control",[10],+++ (+++ > 75%)
same,"Window of antiviral effects: Penetration, inhibitory effect relative to DMSO control",[11]; [28],- (- < 25%)
same,protection of the host cell from infection during virus penetration,"[11]; shift 4°C to 37°C, Figure 4",< 40%
same,"Window of antiviral effects: Attachment Method 1, inhibitory effect relative to DMSO control",[12],++ (++ 50–75%)
same,"Window of antiviral effects: Attachment Method 1, inhibitory effect relative to DMSO control",[13],+++ (+++ > 75%)
same,"Window of antiviral effects: Post-infection, inhibitory effect relative to DMSO control",[14],- (- < 25%)
same,"Window of antiviral effects: Attachment Method 2, inhibitory effect relative to DMSO control",[15],+++ (+++ > 75%)
same,"Window of antiviral effects: Cell-to-cell spread, inhibitory effect relative to DMSO control",[16]; [30],- (- < 25%)
same,effect on viral plaque size (cell-to-cell spread),[16]; Figure 7,limited effect
same,"Window of antiviral effects: Attachment Method 1, inhibitory effect relative to DMSO control",[17],+ (+ 25–50%)
same,"Window of antiviral effects: Attachment Method 2, inhibitory effect relative to DMSO control",[18],++ (++ 50–75%)
same,"Window of antiviral effects: Free particle, inhibitory effect relative to DMSO control",[19],++ (++ 50–75%)
same,"Window of antiviral effects: Post-infection, inhibitory effect relative to DMSO control",[20],- (- < 25%)
same,"Window of antiviral effects: Penetration, inhibitory effect relative to DMSO control",[21]; [30],+ (+ 25–50%)
same,protection of the host cell from infection during virus penetration,"[21]; shift 4°C to 37°C, Figure 4",< 40%
same,"Window of antiviral effects: Attachment Method 2, inhibitory effect relative to DMSO control",[22],+++ (+++ > 75%)
same,"Window of antiviral effects: Post-infection, inhibitory effect relative to DMSO control",[23],- (- < 25%)
same,"Window of antiviral effects: Cell-to-cell spread, inhibitory effect relative to DMSO control","[24]; DENV-2, Vero cells, CHLA 25 μM, PUG 25 μM, Heparin 200 μg/ml",- (- < 25%)
same,effect on viral plaque size (cell-to-cell spread),"[24]; DENV-2, Figure 7",limited effect
same,"Window of antiviral effects: Penetration, inhibitory effect relative to DMSO control",[25],++ (++ 50–75%)
same,"Window of antiviral effects: Penetration, inhibitory effect relative to DMSO control",[26]; [29],+ (+ 25–50%)
same,protection of the host cell from infection during virus penetration,"[26]; shift 4°C to 37°C, Figure 4",< 40%
same,"Window of antiviral effects: Free particle, inhibitory effect relative to DMSO control",[27],+ (+ 25–50%)
